Data: US8658661B2, “Oxadiazole inhibitors of leukotriene production” (Boehringer Ingelheim International GmbH, priority 2010, dated 2014)
Each block holds one molecule with its values, some of them ahead of it.

What was measured:
[1] = target: T1, recombinant human FLAP protein (Homo sapiens, UniProt P20292); test: FLAP binding assay (SPA, displacement of [125I]L-691,831); conditions: membranes of sf9 cells expressing recombinant human FLAP; [125I]L-691,831 probe; read-out: FLAP binding IC50
T1 construct: made in house; host or cells: Sf9 insect cells (100,000×g membrane pellet used)
T1 sequence (P20292 1-161): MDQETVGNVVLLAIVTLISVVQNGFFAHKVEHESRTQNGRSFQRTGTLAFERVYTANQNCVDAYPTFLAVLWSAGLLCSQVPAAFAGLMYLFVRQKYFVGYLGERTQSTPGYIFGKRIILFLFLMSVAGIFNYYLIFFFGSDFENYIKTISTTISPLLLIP
In short: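 Membranes from sf9 cells expressing human FLAP in pH 7.5 Tris buffer (MgCl2, EDTA, PMSF). Non-specific binding defined with 10 μM cold L-691,831.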

[2] = test system: synthesis of LTB4 in human whole blood; test: Human whole blood assay (inhibition of LTB4 synthesis, calcimycin stimulated); assay type: cell-based; conditions: heparinized human whole blood, calcimycin 20 μM, plasma LTB4
In short: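 LTB4 levels in plasma were measured by antibody-based HTRF after heparinized human whole blood, pretreated with compound (15 min, 37° C), was challenged with 20 μM calcimycin for 30 min at 37° C.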

SMILES: CC(C)[C@](C)(c1ccc(-c2cnc(N)nc2)cc1)c1noc(-c2ccn(C)n2)n1 [Example 16, 5-(4-{(2R)-3-methyl-2-[5-(1-methyl-1H-pyrazol-3-yl)-1,2,4-oxadiazol-3-yl]butan-2-yl}phenyl)pyrimidin-2-amine]
IC50 [1]: 2.5 nM
IC50 [2]: 110 nM

SMILES: CN(C)C(=O)Cn1cc(-c2nc(C(C)(c3ccc(-c4ccc(N)nc4C#N)cc3)C3CC3)no2)cn1 (centres unmarked) [Example 296]
IC50 [1]: 12 nM
IC50 [2]: 230 nM

SMILES: CC(C)C(C)(c1ccc(-c2cnc(N)nc2)cc1)c1noc(-c2ncc[nH]2)n1 (centres unmarked) [Example 20, 5-(4-{2-[5-(1H-imidazol-2-yl)-1,2,4-oxadiazol-3-yl]-3-methylbutan-2-yl}phenyl)pyrimidin-2-amine]
IC50 [1]: 10 nM
IC50 [2]: 3200 nM

SMILES: CC(C)C(C)(c1ccc(-c2cnc(N)nc2)cc1)c1noc(-c2ccc(Cl)nc2)n1 (centres unmarked) [Example 7, 5-(4-{2-[5-(6-chloropyridin-3-yl)-1,2,4-oxadiazol-3-yl]-3-methylbutan-2-yl}phenyl)pyrimidin-2-amine]
IC50 [1]: 3.1 nM
IC50 [2]: 560 nM

SMILES: CC(C)(O)CNc1ccc(-c2nc(C(C)(C)c3ccc(-c4cnc(N)nc4)cc3)no2)cn1 [Example 70, 1-{[5-(3-{2-[4-(2-aminopyrimidin-5-yl)phenyl]propan-2-yl}-1,2,4-oxadiazol-5-yl)pyridin-2-yl]amino}-2-methylpropan-2-ol]
IC50 [1]: 7.1 nM
IC50 [2]: 590 nM

SMILES: CN(C)C(=O)Cn1cc(-c2nc(C(C)(c3ccc(-c4cnc5[nH]ccc5c4)cc3)C3CC3)no2)cn1 (centres unmarked) [Example 242, 2-[4-(3-{1-Cyclopropyl-1-[4-(1H-pyrrolo[2,3-b]pyridin-5-yl)-phenyl]-ethyl}-[1,2,4]oxadiazol-5-yl)-pyrazol-1-yl]-N,N-dimethyl-acetamide]
IC50 [1]: 5.7 nM
IC50 [2]: 310 nM

SMILES: CC(C)C(C)(c1ccc(-c2cnc(N)nc2)cc1)c1noc(C2CCCC(=O)N2)n1 (centres unmarked) [Example 167, 6-(3-{2-[4-(2-aminopyrimidin-5-yl)phenyl]-3-methylbutan-2-yl}-1,2,4-oxadiazol-5-yl)piperidin-2-one]
IC50 [1]: 46 nM
IC50 [2]: 4300 nM

SMILES: Cc1nc(-c2ccc([C@](C)(c3noc(-c4cnn(CC(C)(C)O)c4)n3)C3CC3)cc2)cnc1N [Example 180, 1-[4-(3-{(R)-1-[4-(5-Amino-6-methyl-pyrazin-2-yl)-phenyl]-1-cyclopropyl-ethyl}-[1,2,4]oxadiazol-5-yl)-pyrazol-1-yl]-2-methyl-propan-2-ol]
IC50 [1]: 2.9 nM
IC50 [2]: 29 nM

SMILES: CC(C)C(C)(c1ccc(-c2cnc(N)nc2)cc1)c1noc(N2CCN(CC(=O)N(C)C)CC2)n1 (centres unmarked) [Example 193, 2-[4-(3-{1-[4-(2-Amino-pyrimidin-5-yl)-phenyl]-1,2-dimethyl-propyl}-[1,2,4]oxadiazol-5-yl)-piperazin-1-yl]-N,N-dimethyl-acetamide]
IC50 [1]: 18 nM
IC50 [2]: 230 nM

SMILES: Cc1nc(N)ncc1-c1ccc([C@](C)(c2noc(-c3cnn(CC(=O)N(C)C)c3)n2)C2CC2)cc1 [Example 257, 2-[4-(3-{(R)-1-[4-(2-Amino-4-methyl-pyrimidin-5-yl)-phenyl]-1-cyclopropyl-ethyl}-[1,2,4]oxadiazol-5-yl)-pyrazol-1-yl]-N,N-dimethyl-acetamide]
IC50 [1]: 7.3 nM
IC50 [2]: 150 nM

SMILES: CC(O)CNc1ccc(-c2nc(C(C)(c3ccc(-c4cnc(N)nc4)cc3)C3CC3)no2)cn1 (centres unmarked) [Example 40, 1-{[5-(3-{1-[4-(2-aminopyrimidin-5-yl)phenyl]-1-cyclopropylethyl}-1,2,4-oxadiazol-5-yl)pyridin-2-yl]amino}propan-2-ol]
IC50 [1]: 2.3 nM
IC50 [2]: 100 nM

SMILES: Cc1nc(N)ccc1-c1ccc(C(C)(c2noc(-c3cnn(CC(=O)N(C)C)c3)n2)C2CC2)cc1 (centres unmarked) [Example 244, 2-[4-(3-{1-[4-(6-Amino-2-methyl-pyridin-3-yl)-phenyl]-1-cyclopropyl-ethyl}-[1,2,4]oxadiazol-5-yl)-pyrazol-1-yl]-N,N-dimethyl-acetamide]
IC50 [1]: 25 nM
IC50 [2]: 270 nM

SMILES: CC(C)C(C)(c1ccc(-c2cnc(N)nc2)cc1)c1noc(N2CCN(CC(=O)O)CC2)n1 (centres unmarked) [Example 272, [4-(3-{1-[4-(2-Amino-pyrimidin-5-yl)-phenyl]-1,2-dimethyl-propyl}-[1,2,4]oxadiazol-5-yl)-piperazin-1-yl]-acetic acid]
IC50 [1]: 280 nM
IC50 [2]: > 5000 nM

SMILES: CC(C)C(C)(c1ccc(-c2cnc(N)nc2)cc1)c1noc(CC(C)(C)O)n1 (centres unmarked) [Example 225, 1-(3-{1-[4-(2-Amino-pyrimidin-5-yl)-phenyl]-1,2-dimethyl-propyl}-[1,2,4]oxadiazol-5-yl)-2-methyl-propan-2-ol]
IC50 [1]: 16 nM
IC50 [2]: 350 nM

SMILES: CC(C)C(C)(c1ccc(-c2cnc(N)nc2)cc1)c1noc(N2CCN(C(N)=O)CC2)n1 (centres unmarked) [Example 192, 4-(3-{1-[4-(2-Amino-pyrimidin-5-yl)-phenyl]-1,2-dimethyl-propyl} [1,2,4]oxadiazol-5-yl)-piperazine-1-carboxylic acid amide]
IC50 [1]: 23 nM
IC50 [2]: 740 nM

SMILES: COCCn1cc(-c2nc([C@@](C)(c3ccc(-c4cnc(N)cn4)cc3)C3CC3)no2)cn1 [Example 191, 5-[4-((R)-1-Cyclopropyl-1-{5-[1-(2-methoxy-ethyl)-1H-pyrazol-4-yl]-[1,2,4]oxadiazol-3-yl}-ethyl)-phenyl]-pyrazin-2-ylamine]
IC50 [1]: 5.9 nM
IC50 [2]: 17 nM

Continued by falling IC50 [1], values first:

IC50 [1]: 220 nM
IC50 [2]: 1900 nM
SMILES: CC(C)C(C)(c1ccc(-c2cnc(N)nc2)cc1)c1noc(NCCN(C)C)n1 (centres unmarked) [Example 171, N-(3-{1-[4-(2-Amino-pyrimidin-5-yl)-phenyl]-1,2-dimethyl-propyl}-[1,2,4]oxadiazol-5-yl)-N′,N′-dimethyl-ethane-1,2-diamine]

IC50 [1]: 130 nM
IC50 [2]: 2700 nM
SMILES: C[C@](c1ccc(-c2cnc(N)nc2)cc1)(c1noc(-c2cnn(C3COC3)c2)n1)C1CCC1 [Example 103, 5-{4-[(1S)-1-cyclobutyl-1-{5-[1-(oxetan-3-yl)-1H-pyrazol-4-yl]-1,2,4-oxadiazol-3-yl}ethyl]phenyl}pyrimidin-2-amine]

IC50 [1]: 89 nM
IC50 [2]: 1300 nM
SMILES: CC(C)C(C)(c1ccc(-c2cnc(N)nc2)cc1)c1noc(NC2CCN(C)CC2)n1 (centres unmarked) [Example 236, 5-(4-{1,2-Dimethyl-1-[5-(1-methyl-piperidin-4-ylamino)-[1,2,4]oxadiazol-3-yl]-propyl}-phenyl)-pyrimidin-2-ylamine]

IC50 [1]: 28 nM
IC50 [2]: 310 nM
SMILES: Cc1nc(N)cnc1-c1ccc(C(C)(c2noc(-c3cnn(CC(=O)N(C)C)c3)n2)C2CC2)cc1 (centres unmarked) [Example 245, 2-[4-(3-{1-[4-(5-Amino-3-methyl-pyrazin-2-yl)-phenyl]-1-cyclopropyl-ethyl}-[1,2,4]oxadiazol-5-yl)-pyrazol-1-yl]-N,N-dimethyl-acetamide]

IC50 [1]: 12 nM
IC50 [2]: 230 nM
SMILES: CC(C)C(C)(c1ccc(-c2cnc(N)nc2)cc1)c1noc(N2CCN(CC(C)(C)O)CC2)n1 (centres unmarked) [Example 211, 1-[4-(3-{1-[4-(2-Amino-pyrimidin-5-yl)-phenyl]-1,2-dimethyl-propyl}-[1,2,4]oxadiazol-5-yl)-piperazin-1-yl]-2-methyl-propan-2-ol]

IC50 [1]: 10 nM
IC50 [2]: 80 nM
SMILES: CC(c1ccc(-c2ccc(N)nc2)cc1)(c1noc(N2CCC(O)CC2)n1)C1CC1 (centres unmarked) [Example 248, 1-(3-{1-[4-(6-Amino-pyridin-3-yl)-phenyl]-1-cyclopropyl-ethyl}-[1,2,4]oxadiazol-5-yl)-piperidin-4-ol]

IC50 [1]: 8.9 nM
IC50 [2]: 66 nM
SMILES: Cc1nc(-c2ccc([C@](C)(c3noc(-c4cnn(CC(=O)N(C)C)c4)n3)C3CC3)cc2)cnc1N [Example 177, 2-[4-(3-{(R)-1-[4-(5-Amino-6-methyl-pyrazin-2-yl)-phenyl]-1-cyclopropyl-ethyl}-[1,2,4]oxadiazol-5-yl)-pyrazol-1-yl]-N,N-dimethyl-acetamide]

IC50 [1]: 5.3 nM
IC50 [2]: 190 nM
SMILES: Cc1ccc(-c2nc(C(C)(c3ccc(-c4cnc(N)nc4)cc3)C3CC3)no2)cn1 (centres unmarked) [Example 29, 5-(4-{1-cyclopropyl-1-[5-(6-methylpyridin-3-yl)-1,2,4-oxadiazol-3-yl]ethyl}phenyl)pyrimidin-2-amine]

IC50 [1]: 5.1 nM
IC50 [2]: 22 nM
SMILES: C[C@@](c1ccc(-c2cnc(N)cn2)cc1)(c1noc(-c2cnn(C3COC3)c2)n1)C1CC1 [Example 265, 5-(4-{(R)-1-Cyclopropyl-1-[5-(1-oxetan-3-yl-1H-pyrazol-4-yl)-[1,2,4]oxadiazol-3-yl]-ethyl}-phenyl)-pyrazin-2-ylamine; compound with trifluoro-acetic acid]

IC50 [1]: 2.4 nM
IC50 [2]: 26 nM
SMILES: COCCn1cc(-c2nc([C@@](C)(c3ccc(-c4cnc(N)nc4)cc3)C3CC3)no2)cn1 [Example 52, 5-{4-[(1R)-1-cyclopropyl-1-{5-[1-(2-methoxyethyl)-1H-pyrazol-4-yl]-1,2,4-oxadiazol-3-yl}ethyl]phenyl}pyrimidin-2-amine]

IC50 [1]: 2.2 nM
IC50 [2]: 180 nM
SMILES: Cc1cc(-c2ccc([C@](C)(c3noc(-c4cnn(CC(=O)N(C)C)c4)n3)C3CC3)cc2)cnc1N [Example 178, 2-[4-(3-{(R)-1-[4-(6-Amino-5-methyl-pyridin-3-yl)-phenyl]-1-cyclopropyl-ethyl}-[1,2,4]oxadiazol-5-yl)-pyrazol-1-yl]-N,N-dimethyl-acetamide]

IC50 [1]: 1.9 nM
IC50 [2]: 89 nM
SMILES: COc1ccncc1-c1nc(C(C)(c2ccc(-c3cnc(N)nc3)cc2)C(C)C)no1 (centres unmarked) [Example 11, 5-(4-{2-[5-(4-methoxypyridin-3-yl)-1,2,4-oxadiazol-3-yl]-3-methylbutan-2-yl}phenyl)pyrimidin-2-amine]
